How the values were obtained:
Assay in all cases: relative viability (nuclei count vs DMSO), 5 days (fraction); higher = more cells survive
[1] = compound: C[As](C)SC[C@H](NC(=O)CC[C@H](N)C(=O)O)C(=O)NCC(=O)O [Darinaparsin] + CCNC(=O)c1noc(-c2cc(C(C)C)c(O)cc2O)c1-c1ccc(CN2CCOCC2)cc1 [Luminespib] (partner 0.01 µM)
Method in brief: (§1)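 Lung cancer cell lines in 1536-well plates were dosed by pin tool the day after seeding, either with one drug alone or with a fixed anchor-drug dose plus five library-drug doses (not always all listed) in √10 steps. After 5 days, cells were fixed and their nuclei stained in one step (final 0.05% Triton X-100, 1% formaldehyde, 1 ug/ml Hoechst), then counted on 4× images. Relative viability is the nuclei count in treated wells divided by that in vehicle wells. Values are medians of duplicate plates.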

AZ628 + Linsitinib = compound: CC1=C(C=C(C=C1)NC(=O)C2=CC(=CC=C2)C(C)(C)C#N)NC3=CC4=C(C=C3)N=CN(C4=O)C [AZ628] + C[C@]1(O)C[C@@H](c2nc(-c3ccc4ccc(-c5ccccc5)nc4c3)c3c(N)nccn32)C1 [Linsitinib] (partner 1 µM)
Method in brief: as §1

[2] = compound: C[As](C)SC[C@H](NC(=O)CC[C@H](N)C(=O)O)C(=O)NCC(=O)O [Darinaparsin] + Nc1nc2[nH]cc(CCc3ccc(C(=O)N[C@@H](CCC(=O)O)C(=O)O)cc3)c2c(=O)[nH]1 [Pemetrexed] (partner 0.2 µM)
Method in brief: as §1

Darinaparsin + OSI-027 = compound: C[As](C)SC[C@H](NC(=O)CC[C@H](N)C(=O)O)C(=O)NCC(=O)O [Darinaparsin] + COc1cccc2cc(-c3nc([C@H]4CC[C@H](C(=O)O)CC4)n4ncnc(N)c34)[nH]c12 [OSI-027] (partner 0.5 µM)
Method in brief: as §1

Row | Cell Line | relative viability ([1]; first compound 0.08 µM) | relative viability ([1]; first compound 0.8 µM) | relative viability ([1]; first compound 2.53 µM) | relative viability ([1]; first compound 8 µM) | relative viability (AZ628 + Linsitinib; first compound 0.08 µM) | relative viability (AZ628 + Linsitinib; first compound 0.253 µM) | relative viability (AZ628 + Linsitinib; first compound 0.8 µM) | relative viability (AZ628 + Linsitinib; first compound 2.53 µM) | relative viability (AZ628 + Linsitinib; first compound 8 µM) | relative viability ([2]; first compound 0.08 µM) | relative viability ([2]; first compound 0.8 µM) | relative viability ([2]; first compound 2.53 µM) | relative viability ([2]; first compound 8 µM) | relative viability (Darinaparsin + OSI-027; first compound 0.08 µM) | relative viability (Darinaparsin + OSI-027; first compound 0.8 µM) | relative viability (Darinaparsin + OSI-027; first compound 2.53 µM) | relative viability (Darinaparsin + OSI-027; first compound 8 µM)
1 | COR-L23 | 1.12 | 0.64 | 0.661 | 0.64 | 1.05 | 0.886 | 0.986 | 0.81 | 0.492 | 0.198 | 0.209 | 0.18 | 0.2 | 0.975 | 0.645 | 0.785 | 0.838
2 | NCI-H1975 | 0.233 | 0.221 | 0.23 | 0.187 | 0.908 | 0.949 | 0.895 | 0.904 | 0.647 | 0.328 | 0.301 | 0.291 | 0.319 | 0.971 | 0.742 | 0.544 | 0.961
3 | NCI-H1666 | 1.05 | 0.897 | 1.24 | 1.07 | 0.809 | 0.57 | 0.551 | 0.753 | 0.553 | 0.91 | 0.854 | 0.984 | 0.955 | 0.926 | 0.827 | 0.847 | 0.982
4 | A-427 | 1.24 | 0.967 | 0.803 | 1.4 | 1 | 0.898 | 0.839 | 0.857 | 0.496 | 1.06 | 0.934 | 1.1 | 1.02 | 0.424 | 0.445 | 0.466 | 0.582
5 | EKVX | 0.872 | 0.924 | 0.926 | 0.962 | 1.18 | 0.922 | 1 | 1.03 | 0.824 | 0.458 | 0.385 | 0.388 | 0.412 | 0.723 | 0.604 | 0.752 | 0.833
6 | NCI-H650 | 0.81 | 0.793 | 0.872 | 0.831 | 1.09 | 0.911 | 1.25 | 0.952 | 0.78 | 0.947 | 0.835 | 0.959 | 1.02 | 0.584 | 0.531 | 0.533 | 0.604
7 | NCI-H2087 | 0.159 | 0.162 | 0.204 | 0.184 | 0.818 | 0.613 | 0.728 | 0.65 | 0.343 | 0.656 | 0.671 | 0.667 | 0.616 | 0.604 | 0.67 | 0.527 | 0.705
8 | NCI-H1755 | 0.491 | 0.393 | 0.411 | 0.57 | 0.993 | 0.956 | 0.941 | 0.937 | 0.883 | 0.552 | 0.389 | 0.411 | 0.656 | 0.725 | 0.691 | 0.686 | 0.841
9 | COR-L 105 | 0.867 | 0.775 | 0.712 | 0.682 | 0.933 | 0.897 | 0.934 | 0.857 | 0.651 | 1.39 | 1.21 | 0.913 | 1.27 | 0.625 | 0.704 | 0.486 | 0.559

From the supplement of paper PMC10307832
